From patent publication US20220324835A1 (Nurix Therapeutics, Inc., priority 2018, published 2022)

Tests used:
[1] = test system: T-cell; test: CD25 cell surface staining on T-cells stimulated with anti-CD3 antibody alone (Biological Example 2); assay type: cell-based, human; settings: T-cell, fold change over baseline, primary human total T-cells, read-out: CD25 staining Anti-CD3 stimulation; for fold induction at 1 µM: 1 μM Cbl-b inhibitor; for fold induction at 8 µM: 8 μM Cbl-b inhibitor
Source text: (§1) Methods for experimentally determining increased T-cell activation, increased T-cell proliferation, decreased T-cell exhaustion, and/or decreased T-cell tolerance are well known in the art.
(§2) Modulation of activity of an immune cell, such as a T-cell, a B cell or a NK cell can be measured by determining a baseline value for a parameter of interest (e.g., cytokine secretion). […] A reference value then is obtained for T-cell activation after contacting or administering said Cbl-b inhibitor. The reference value is compared to the baseline value in order to determine the amount of T-cell activation due to contact or administration of the Cbl-b inhibitor or composition thereof. […] Immune cell activation can be assessed by measuring biological markers of activation such as increased cytokine secretion, increased cell surface expression of activation markers (e.g., cell surface markers), or increased phosphorylation of proteins in a downstream signaling pathway. The fold over baseline value that indicates immune cell activation can be determined for the parameter being tested and the conditions under which the immune cell were treated. For example, for measuring T-cell activation, a baseline value can be obtained from T-cells stimulated with anti-CD3 antibody in combination with anti-CD28 antibody, wherein the cells are not incubated with a Cbl-b inhibitor. […] A positive response for immune cell activation can then be determined by the obtained reference value.
(§3) In some embodiments, a baseline value can be obtained from T-cells stimulated with anti-CD3 antibody alone, wherein the cells are not incubated with a Cbl-b inhibitor. In some embodiments, a positive response for T-cell activation as measured by cytokine secretion (e.g., IL-2 secretion) by T-cells stimulated with anti-CD3 antibody alone in the presence of a Cbl-b inhibitor is at least 0.1-fold over the baseline value for cytokine secretion (e.g., IL-2 secretion) obtained from T-cells stimulated with anti-CD3 antibody alone in the absence of a Cbl-b inhibitor. In some embodiments, a positive response for T-cell activation as measured by surface marker expression (e.g., CD25 surface marker staining) by T-cells stimulated with anti-CD3 antibody alone in the presence of a Cbl-b inhibitor is at least 0.6-fold over the baseline value for surface marker expression (e.g., CD25 surface marker staining) obtained from T-cells stimulated with anti-CD3 antibody alone in the absence of a Cbl-b inhibitor.

[2] = test system: T-cell; test: IL-2 secretion from T-cells co-stimulated with anti-CD3 and anti-CD28 antibody (Biological Example 2); assay type: cell-based, human; settings: Homo sapiens, T-cell, fold change over baseline, primary human total T-cells, read-out: IL-2 secretion Anti-CD3/Anti-CD28 stimulation; for fold induction at 0.3 µM: 0.3 μM Cbl-b inhibitor; for fold induction at 1 µM: 1 μM Cbl-b inhibitor; for fold induction at 4 µM: 4 μM Cbl-b inhibitor
Source text: as §1
as §2, with “value. […]” for “value.”

[3] = test system: T-cell; test: IL-2 secretion from T-cells stimulated with anti-CD3 antibody alone (Biological Example 2); assay type: cell-based, human; settings: T-cell, fold change over baseline, primary human total T-cells, read-out: IL-2 secretion Anti-CD3 stimulation; for fold induction at 1 µM: 1 μM Cbl-b inhibitor; for fold induction at 8 µM: 8 μM Cbl-b inhibitor
Source text: as §1, §2, §3

[4] = target: T1, Cbl-b (Homo sapiens, UniProt Q13191); test: Cbl-b activity assay (Cbl-b inhibition assay), TR-FRET of Cbl-b interaction with UbcH5B-Ub; assay type: biochemical; settings: assay buffer with 100 mM NaCl, 60 nM Src kinase; read-out: Cbl-b activity IC50
T1 sequence (Q13191 36-427): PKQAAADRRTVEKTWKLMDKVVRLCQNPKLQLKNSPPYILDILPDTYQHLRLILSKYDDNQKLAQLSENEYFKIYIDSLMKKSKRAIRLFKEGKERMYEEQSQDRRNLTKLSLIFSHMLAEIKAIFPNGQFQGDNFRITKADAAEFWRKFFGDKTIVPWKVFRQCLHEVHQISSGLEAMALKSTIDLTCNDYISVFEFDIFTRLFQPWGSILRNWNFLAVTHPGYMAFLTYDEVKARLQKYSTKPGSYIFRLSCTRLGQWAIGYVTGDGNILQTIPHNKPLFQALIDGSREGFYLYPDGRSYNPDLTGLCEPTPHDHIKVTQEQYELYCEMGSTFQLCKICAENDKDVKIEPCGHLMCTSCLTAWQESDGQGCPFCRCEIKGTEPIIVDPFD
How it was run: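 Compound-treated Cbl-b was incubated 1.5 h with Src kinase (60 nM final; 30 nM for asterisked values, which also used 50 mM instead of 100 mM NaCl), 1 mM ATP and 5 mM MgCl2. Binding to fluorescent Ub-loaded UbcH5B (C85K mutant) was then read by TR-FRET after 1 h more.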

[5] = target: T1, Cbl-b; test: Cbl-b inhibition assay (Cbl-b activity assay, FRET, Biological Example 1; 100 mM NaCl, 60 nM Src kinase); assay type: biochemical; settings: upper bound stated in text lists; read-out: IC50 values in the Cbl-b inhibition assay of Biological Example 1
How it was run: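 FRET read-out: loss of signal marks inhibition. Mix = biotin-Avi-Cbl-b (N-term), Src kinase, UbcH5B-Ub(Bodipy-FL, irreversible conjugate), streptavidin-Tb, assay buffer.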

[6] = test system: T-cell; test: CD25 cell surface staining on T-cells co-stimulated with anti-CD3 and anti-CD28 antibody (Biological Example 2); assay type: cell-based, human; settings: Homo sapiens, T-cell, fold change over baseline, primary human total T-cells, read-out: CD25 staining Anti-CD3/Anti-CD28 stimulation; for fold induction at 0.3 µM: 0.3 μM Cbl-b inhibitor; for fold induction at 1 µM: 1 μM Cbl-b inhibitor; for fold induction at 4 µM: 4 μM Cbl-b inhibitor
Source text: as §1
as §2, with “value. […]” for “value.”

Compound | fold induction at 1 µM [1] | fold induction at 8 µM [1] | fold induction at 0.3 µM [2] | fold induction at 1 µM [2] | fold induction at 4 µM [2] | fold induction at 1 µM [3] | fold induction at 8 µM [3] | IC50 [4] [µM] | IC50 [5] [µM] | fold induction at 0.3 µM [6] | fold induction at 1 µM [6] | fold induction at 4 µM [6]
Cn1cnnc1[C@H]1CC[C@H]1c1cccc(N2Cc3c(cccc3C(F)(F)F)C2=O)c1 (racemic) [Compound 283, cis-2-(3-(2-(4-Methyl-4H-1,2,4-triazol-3-yl)cyclobutyl)phenyl)-4-(trifluoromethyl)isoindolin-1-one] | < 0.6 | < 0.6 | < 1 | 1.01 to 2.5 | 1.01 to 2.5 | < 0.05 | 0.101 to 0.15 | 0.301 to 1 | ≤ 1 | < 1 | < 1 | 1.01 to 1.3
C[C@@H](c1cccc(N2Cc3c(cccc3C(F)(F)F)C2=O)c1)[C@@H](O)c1nncn1C (racemic) [Compound 292, cis-2-(3-(1-Hydroxy-1-(4-methyl-4H-1,2,4-triazol-3-yl)propan-2-yl)phenyl)-4-(trifluoromethyl)isoindolin-1-one] | < 0.6 | < 0.6 | 2.51 to 5 | 1.01 to 2.5 | 1.01 to 2.5 | < 0.05 | < 0.05 | 1 to 3 | ≤ 10 | 1.01 to 1.3 | < 1 | 1.01 to 1.3
C[C@@H](c1cccc(N2Cc3c(cccc3C(F)(F)F)C2=O)c1)[C@H](F)c1nncn1C (relative stereo) [Compound 293, trans-2-(3-(1-fluoro-1-(4-methyl-4H-1,2,4-triazol-3-yl)propan-2-yl)phenyl)-4-(trifluoromethyl)isoindolin-1-one] | 0.601 to 0.8 | 0.801 to 1 | 2.51 to 5 | 2.51 to 5 | 2.51 to 5 | 0.101 to 0.15 | > 0.201 | 0.1 to 0.3 | ≤ 0.5 | 1.01 to 1.3 | 1.01 to 1.3 | 1.01 to 1.3
CC(Sc1nncn1C)c1cccc(NC(=O)c2ccc3ccccc3n2)c1 (stereo not drawn) [Compound 9, N-(3-(1-((4-Methyl-4H-1,2,4-triazol-3-yl)thio)ethyl)phenyl)quinoline-2-carboxamide] | < 0.6 | 0.601 to 0.8 | 1.01 to 2.5 | 1.01 to 2.5 | 2.51 to 5 | < 0.05 | 0.051 to 0.1 | – | ≤ 1 | < 1 | < 1 | 1.01 to 1.3
C[C@H](Sc1nncn1C)c1cccc(NC(=O)c2ccc3ccccc3n2)c1 [Compound 9a] | 0.601 to 0.8 | 0.601 to 0.8 | 1.01 to 2.5 | 1.01 to 2.5 | 1.01 to 2.5 | < 0.05 | 0.051 to 0.1 | – | ≤ 0.5 | 1.01 to 1.3 | 1.01 to 1.3 | 1.01 to 1.3
C[C@H](Cc1nncn1C)c1cccc(NC(=O)c2cnn3cccnc23)c1 [Compound 324, (R)-N-(3-(1-(4-Methyl-4H-1,2,4-triazol-3-yl)propan-2-yl)phenyl)pyrazolo[1,5-a]pyrimidine-3-carboxamide] | 0.601 to 0.8 | 0.601 to 0.8 | 1.01 to 2.5 | 1.01 to 2.5 | 1.01 to 2.5 | 0.051 to 0.1 | 0.051 to 0.1 | 0.301 to 1 | – | < 1 | < 1 | 1.01 to 1.3
C[C@H](Cc1nncn1C)c1cc(NC2COC2)cc(N2Cc3c(cccc3C(F)(F)F)C2=O)c1 [Compound 350, 2-{3-[(2R)-1-(4-methyl-4H-1,2,4-triazol-3-yl)propan-2-yl]-5-[(oxetan-3-yl)amino]phenyl}-4-(trifluoromethyl)-2,3-dihydro-1H-isoindol-1-one] | 0.601 to 0.8 | 0.801 to 1 | < 1 | 1.01 to 2.5 | 1.01 to 2.5 | 0.051 to 0.1 | 0.051 to 0.1 | 0.301 to 1 | – | 1.01 to 1.3 | 1.01 to 1.3 | 1.01 to 1.3
CC1OCC1Oc1cc([C@H](C)Cc2nncn2C)cc(N2Cc3c(cccc3C(F)(F)F)C2=O)n1 (stereo partly drawn) [Compound 355, 2-(4-((R)-1-(4-methyl-4H-1,2,4-triazol-3-yl)propan-2-yl)-6-((2-methyloxetan-3-yl)oxy)pyridin-2-yl)-4-(trifluoromethyl)isoindolin-1-one] | 0.601 to 0.8 | 0.601 to 0.8 | 1.01 to 2.5 | 1.01 to 2.5 | 1.01 to 2.5 | 0.051 to 0.1 | 0.101 to 0.15 | 0.301 to 1 | – | 1.01 to 1.3 | 1.01 to 1.3 | 1.01 to 1.3
C[C@H](Cc1nncn1C)c1cc(OCCO)nc(N2Cc3c(cccc3C(F)(F)F)C2=O)c1 [Compound 359, (R)-2-(6-(2-hydroxyethoxy)-4-(1-(4-methyl-4H-1,2,4-triazol-3-yl)propan-2-yl)pyridin-2-yl)-4-(trifluoromethyl)isoindolin-1-one] | 0.601 to 0.8 | > 1 | 1.01 to 2.5 | 1.01 to 2.5 | 2.51 to 5 | 0.051 to 0.1 | > 0.201 | 0.301 to 1 | – | 1.01 to 1.3 | 1.01 to 1.3 | 1.31 to 1.5
